Holding throughout (type): cell-based
For one experiment, the target named is T1, RXR-VDR heterodimer (Homo sapiens, UniProt P11473).
T1 construct: add the Gal-4-RXR-DEF and VP16-VDR-LBD; expressed in transfected cells; host or cells: SaOS-2 cells
T1 sequence (P11473 127-423 limits assumed): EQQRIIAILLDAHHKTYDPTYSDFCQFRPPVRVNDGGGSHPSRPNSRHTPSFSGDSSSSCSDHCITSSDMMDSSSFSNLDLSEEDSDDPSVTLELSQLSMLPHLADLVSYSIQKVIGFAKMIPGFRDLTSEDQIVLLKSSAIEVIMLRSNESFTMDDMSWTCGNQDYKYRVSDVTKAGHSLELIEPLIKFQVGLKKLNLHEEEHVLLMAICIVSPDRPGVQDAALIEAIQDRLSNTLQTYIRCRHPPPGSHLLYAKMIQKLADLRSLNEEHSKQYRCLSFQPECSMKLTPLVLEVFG
T1 sequence (P19793 201-462 partner limits assumed): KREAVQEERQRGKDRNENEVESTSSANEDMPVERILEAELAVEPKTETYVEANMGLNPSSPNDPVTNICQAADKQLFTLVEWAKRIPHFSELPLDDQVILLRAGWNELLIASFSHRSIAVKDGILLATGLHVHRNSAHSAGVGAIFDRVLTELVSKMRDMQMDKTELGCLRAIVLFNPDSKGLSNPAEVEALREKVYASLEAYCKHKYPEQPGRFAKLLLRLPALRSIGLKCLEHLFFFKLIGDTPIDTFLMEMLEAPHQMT
Description: RXR-VDR heterodimerization (SaOS-2 cells) test. The conditions noted are these: Gal-4-RXR-DEF and VP16-VDR-LBD, luciferase reporter. The protocol:
1. The RXR-VDR heterodimerAssay:
This assay provides the VDR activity of a test compound. It is desirable to have low EC50 values for a compound in this assay. […] Desired assay results are EC50 values less than or equal to 600 nM. Preferred assay results are less than 250 nM, and most preferably less than 150 nM.
(1) Materials and Method for RXR-VDR Heterodimerization Assay Transfection Method: Reagents: FuGENE 6 Transfection Reagent (Roche Cat # 1 814 443); Growth Media: D-MEM High Glucose (Gibco BRL Cat # 11054-020), 10% heat inactivated FBS (Gibco BRL Cat # 10092-147), 1% antibiotic-antimycotic (Ab-Am); (Gibco BRL Cat # 15240-062). Cells: Grow SaOS-2 cells in T-150 cm^2 culture flasks in growth media keeping the density at 5-6×10^5 cells/ml. Passage cells 1:3 twice a week. Add Trypsin EDTA (Gibco BRL Cat # 25300-020) and incubate. Resuspend cells in plating media and transfer into growth media. Wash Media: HBSS Low Glucose Without Phenol Red (Gibco BRL Cat # 14175-095), 1% Ab-Am. Plating Media: D-MEM Low Glucose Without Phenol Red (Gibco BRL Cat # 11054-020), 1% Ab-Am; D-MEM; 10% Stripped FBS (Hyclone Cat# SH30068.03 Lot # AHM9371). Transfection/Treatment Media: D-MEM Low Glucose Without Phenol Red only; T-150 cm^2 culture flask: Use Corning Coastar T-150 cm^2 culture flask (Cat #430825) to grow the cells. Luciferase Assay Reagent: Use Steady-Glo Luciferase Reagent from Promega (Cat # E2550) Consists of: E2533 Assay Substrate, lypholized product and E2543 Assay Buffer. Thaw at room temperature and store. Cell Harvesting/Count: Aspirate media from culture flask, rinse cells with HBSS and aspirate. Add trypsin and incubate. When cells appear detached, resuspend cells in growth media. Transfer into a new flask with fresh growth media for passaging the cells. Plate 96 well plates and two extra plates. Mix the cell suspension using pipette. To count the cells using a Hematocytometer. Plate seeding: Use plating media 10% Stripped FBS in D-MEM Low Glucose, without Phenol Red, 1% Ab-Am. Plate 14 plates @ 165 μl/well. In sterile flask add cell suspension to plating media and mix. Add cells/well. Place the cells in the incubator. Cells should be about 75% confluent prior to transfection. DAY 2: Transfection: Step 1, DNA and Media: Add plain DMEM media to tubes for mixing the DNA; add the Reporter gene pFR-LUC; and add the Gal-4-RXR-DEF and VP16-VDR-LBD. Step 2, FuGENE and Media: Prepare plain DMEM media in a tubes for mixing FuGENE, add FuGENE 6 Transfection Reagent, and incubate. Step 3, FuGENE, DNA and Media Complex: Add FuGENE Media complex from step 2 to DNA Media complex from step 1 and incubate. Step 4, FuGENE, DNA and Media Complex to 96 well plate: Add FuGENE-DNA-Media complex from step 3 to each plate. Incubate. Day 3: Dosing: Treatment preparation. Allow for transfection time. Make a stock solution of the compounds in DMSO and vortex until all the compounds have been dissolved. Further dilute in D-MEM (Low Glucose—without Phenol Red) Add compounds in quadruplicate to give desired final volume then incubate. Day 4: Luciferase Assay: Read the plates after drug treatment. Remove part of media from all the wells and leave remainder. Add Steady-Glo Luciferase Reagent mixture/wells and incubate. Count each well using a Luminescence counter, Top Count NXT by Packard preferably set a delay between plates to reduce the background.
(In general: A reporter such as luciferase makes a cellular process visible.)

The test system of another experiment is rat osteocalcin promoter. The experiment in a line: OCN (osteocalcin) Promoter Assay. The conditions noted are these: RG-15 (ROS17/2.8) cells, luciferase reporter, 48 h treatment. The protocol:
The OCN (osteocalcin) Promoter Assay
The OCN Promoter Assay is an indicator and marker for osteoporosis. Desired assay results are EC50 less than or equal to 325 nM. Preferred assay results are less than 50 nM.
The activation of osteocalcin by VDR ligands is evaluated in a rat osteoblast-like cell line RG-15 (ROS17/2.8) stably expressing rat osteocalcin promoter fused with luciferase reporter gene. The stable cell lines are established as reported before (Activation of Osteocalcin Transcription involves interaction of protein kinase A- and Protein kinase C-dependent pathways. Boguslawski, G., Hale, L. V., Yu, X.-P., Miles, R. R., Onyia, J. E., Santerre R. F., Chandrasekhar, S. J. Biol. Chem. 275, 999-1006, 2000). Confluent RG-15 cells maintained in DMEM/F-12 medium (3:1) containing 5% FBS, 300 μg/ml G418 and at 37° C. under 5% CO2/95% air atmosphere are trypsinized (0.25% trypsin) and plated into white opaque 96-well cell culture plates (25000 cells/well). After 24 h, cells (in DMEM/F-12 medium+2% FBS) are treated with various concentrations of compounds, dissolved in DMSO. The final DMSO concentration remains at 0.01% (v/v). After 48 h treatment, the medium is removed, cells are lysed with 50 μl of lysis buffer (From Luciferase reporter assay system, Roche Diagnostics, Indianapolis, Ind.) and then assayed for luciferase activity using the Luciferase Reporter Gene Assay kit from Boehringer Mannheim as per manufacturer's specifications.

Experiment [1] concerns KERtr cells (Human skin keratinocyte). The experiment in a line: Keratinocyte Proliferation Assay. The conditions noted are these: BrdU incorporation, 72 h, read-out: Kera. Prolif. IC50. The procedure: The Keratinocyte Proliferation Assay
This Assay is indicative for the treatment of psoriasis. An acceptable test result is IC50 value of less than or equal to 300 nM. Preferred assay results are IC50 values of less than 100 nM.
KERtr cells (Human skin keratinocyte) are transformed with a retrovirus vector, obtained from ATCC, then are plated in 96-well flat-bottomed plates (3000 cells/well) in 100 μl keratinocyte serum free medium supplemented with bovine pituitary extract in the absence of EGF (Life Technologies, Rockville, Md.) and are incubated at 37° C. for two days. The cells are treated with various concentrations of VDR ligands (ten-fold serial dilution from 10,000 nM to 0.1 nM in triplicate), dissolved in 100 μl keratinocyte serum free medium supplemented with bovine pituitary extract in the absence of EGF and are incubated at 37° C. for 72 h. BrdU (5-bromo-2′-deoxyuridine) incorporation is analyzed as a measure of DNA replication (Cell proliferation ELISA kit, Roche Diagnostics, Indianapolis, Ind.) and absorbance is measured at 405 nm. Potency values (IC50) values were determined as the concentration (nM) of compound that elicited a half-maximal response.

For orientation: EC50 means the concentration giving half of the maximal effect. What is called IC50 is the concentration needed to halve the response being measured.

Turning to `CCC(CC)(c1ccc(OCC(=O)C(C)(C)C)c(C)c1)c1nc2cc(C(=O)O)ccc2o1` [Ex. 5, 2-{1-[4-(3,3-Dimethyl-2-oxo-butoxy)-3-methyl-phenyl]-1-ethyl-propyl}-benzooxazole-5-carboxylic acid], the results for the EC50 on RXR-VDR heterodimer and with rat osteocalcin promoter were 0.037 µM and 0.008 µM, respectively. In experiment [1], the IC50 is over 1 µM.

For `CCC(CC)(c1ccc(OCC(=O)C(C)(C)C)c(C)c1)c1nc2ccc(C(N)=O)cc2o1` [Ex. 2, 2-{1-[4-(3,3-Dimethyl-2-oxo-butoxy)-3-methyl-phenyl]-1-ethyl-propyl}-benzooxazole-6-carboxylic acid amide], the figures for the EC50 on RXR-VDR heterodimer and in the experiment on rat osteocalcin promoter were 0.073 µM and 0.289 µM, respectively. Also, the IC50 in experiment [1] was over 1 µM.

As for `CCC(CC)(c1ccc(OCC(=O)C(C)(C)C)c(C)c1)c1nc2ccc(C(=O)N(C)C)cc2o1` [Ex. 3, 2-{1-[4-(3,3-Dimethyl-2-oxo-butoxy)-3-methyl-phenyl]-1-ethyl-propyl}-benzooxazole-6-carboxylic acid dimethylamide], the EC50 was determined as 0.701 µM on RXR-VDR heterodimer and 1.64 µM in the experiment with rat osteocalcin promoter.

For the compound `CCC(CC)(c1ccc(OCC(=O)C(C)(C)C)c(C)c1)c1nc2cc(C(N)=O)ccc2o1` [Ex 7, 2-{1-[4-(3,3-Dimethyl-2-oxo-butoxy)-3-methyl-phenyl]-1-ethyl-propyl}-benzooxazole-5-carboxylic acid amide], the response at RXR-VDR heterodimer was half-maximal at 0.177 µM (EC50). In experiment [1], the IC50 was over 1 µM.

Regarding `CCC(CC)(c1ccc(OCC(=O)C(C)(C)C)c(C)c1)c1nc2ccc(C(=O)NCC(=O)O)cc2o1` [Ex. 4, [(2-{1-[4-(3,3-dimethyl-2-oxo-butoxy)-3-methyl-phenyl]-1-ethyl-propyl}-benzooxazole-6-carbonyl)-amino]-acetic acid], the concentration giving a half-maximal response (EC50) was found to be 0.7 µM on RXR-VDR heterodimer and 1.17 µM in the experiment with rat osteocalcin promoter.

Regarding `CCC(CC)(c1ccc(OCC(=O)C(C)(C)C)c(C)c1)c1nc2ccc(C(=O)O)cc2o1` [Ex. 1, 2-{1-[4-(3,3-dimethyl-2-oxo-butoxy)-3-methyl-phenyl]-1-ethyl-propyl}-benzooxazole-6-carboxylic acid], the EC50 on RXR-VDR heterodimer amounted to 1.12 µM; with rat osteocalcin promoter, 0.376 µM.

Turning to `CCC(CC)(c1ccc(OCC(O)C(C)(C)C)c(C)c1)c1nc2cc(C(=O)O)ccc2o1` (centres unmarked) [Ex. 6, 2-{1-Ethyl-1-[4-(2-hydroxy-3,3-dimethyl-butoxy)-3-methyl-phenyl]-propyl}-benzooxazole-5-carboxylic acid], at RXR-VDR heterodimer, the EC50 is 0.005 µM. Also, the concentration for half-maximal inhibition (IC50) in experiment [1] is 0.036 µM.

For the compound `CCC(CC)(c1ccc(OCC(=O)C(C)(C)C)c(C)c1)c1nc2cc(C(=O)NCC(=O)O)ccc2o1` [Ex 9, [(2-{1-[4-(3,3-Dimethyl-2-oxo-butoxy)-3-methyl-phenyl]-1-ethyl-propyl}-benzooxazole-5-carbonyl)-amino]-acetic acid], the EC50 on RXR-VDR heterodimer was 0.15 µM. In addition, the IC50 in experiment [1] was over 1 µM.

Consider `CCC(CC)(c1ccc(OCC(=O)C(C)(C)C)c(C)c1)c1nc2cc(C(=O)N(C)C)ccc2o1` [Ex 8, 2-{1-[4-(3,3-Dimethyl-2-oxo-butoxy)-3-methyl-phenyl]-1-ethyl-propyl}-benzooxazole-5-carboxylic acid dimethylamide], for which, at RXR-VDR heterodimer, the response was half-maximal at 0.117 µM (EC50). Moreover, the IC50 in experiment [1] was over 1 µM.

The values are drawn from patent US7659296B2, “Vitamin D receptor modulators” (Eli Lilly and Company, priority 2004, dated 2010).
